Data as given in patent US4195101A, “2',6'-Dihydroxy-9-(2,5-dihydroxyphenyl)octylphenone and its use as an anti-oxidant” (The Lion Dentifrice Co. Ltd., priority 1977, dated 1980).

How the values were obtained:
[1] = Solubility rating of 10 mg of the crystal in various solvents (Table I); format: physicochemical; details: for Rating of Solubility: 10 mg of crystal
Method: This compound is obtained as needle-like or plate-like crystals white to pale-yellow in appearance, tasteless, odorless and non-irritative, and has a melting point of 123.5° to 124° C. The compound is soluble in various solvents as shown in Table I. In Table I, the solubility of the compound was rated by A, B, C and D and each rating was determined for 10 mg of the crystal as follows.
A: Soluble in less than 0.1 ml of solvent.
B: Soluble in 0.1-1.0 ml of solvent.
C: Soluble in 1.0-10.0 ml of solvent.
[…]: Soluble in more than 10.0 ml of solvent.

[2] = Test I: peroxide value of refined lard by the active oxygen method (AOM); details: for Peroxide value: 97.5° C.
Method: (§1) The above-obtained compound was tested for its anti-oxidative effects in terms of peroxide value by the active oxygen method (AOM) and also in terms of oxygen absorption. […] Each of the tests I and II are described below together with the results thereof.
Varied amounts of the compound were admixed with and uniformly dissolved in portions of refined lard each weighing 20 g to prepare test samples. Each test sample was kept in an oil bath of thermostat at 97.5°±0.5° C., while air was forcedly blown into the lard at a rate of […].
The thus treated samples of the lard were analyzed for the peroxide value (POV for brevity) periodically or at certain intervals, in accordance with the modified Lea's method as described in "Yukagaku" (Journal of Japan Oil Chemist Society), vol. 19(15), p. 340, 1970.
In comparison, similar experiments were undertaken for the samples of the same lard with addition of BHA instead of the compound of the present invention or without addition of any anti-oxidant.

[3] = Irritation (statement on properties of the compound)
[4] = Anti-oxidative activity, general statements
[5] = Test II: oxygen absorption in corn salad oil, Warburg's manometer; details: 0.02% by weight in corn salad oil, 60° C.
Method: as §1
The compound of the present invention was determined for the rate of oxygen absorption in a corn salad oil to which 0.02% by weight of the compound had been added. For the purpose, 2 grams of the corn salad oil sample was taken in the receptacle of Warburg's manometer with thermostat at 60°±0.1° C., which was shaken with 110 vibrations per minute in a vibration amplitude of 60 mm. The rate of oxygen absorption was determined by reading the manometer according to the procedure set forth in "Jikken Kagaku Koza" (Lectures in Experimental Chemistry), vol. 24, p. 85, 1958, Maruzen Publishing, Japan. In this testing, the receptacle was totally wrapped with an aluminum foil to prevent the photooxidation of the oil, and mercury was used as the manometer fluid in place of Brodie's solution in order to minimize any possible influence caused by fluctuations in the atmospheric pressure.
Further, in comparison, a similar test was conducted using the same corn salad oil with addition of 0.02% by weight of BHA or without addition of any anti-oxidant.

mouse = assay: LD50, oral administration, mouse
[6] = LD50, oral administration, mouse; details: in vivo, po

SMILES: O=C(CCCCCCCCc1cc(O)ccc1O)c1c(O)cccc1O [Inventive compound, 2',6'-dihydroxy-9-(2,5-dihydroxyphenyl)octylphenone]
- Rating of Solubility ([1]; 1,2-Dichloroethane, at 25° C.): C (Soluble in 1.0-10.0 ml of solvent)
- Rating of Solubility ([1]; 1,2-Dichloroethane, at the boiling point of solvent): A (Soluble in less than 0.1 ml of solvent)
- Rating of Solubility ([1]; Acetone, at 25° C.): A (Soluble in less than 0.1 ml of solvent)
- Rating of Solubility ([1]; Acetone, at the boiling point of solvent): A (Soluble in less than 0.1 ml of solvent)
- Rating of Solubility ([1]; Acetonitrile, at 25° C.): A (Soluble in less than 0.1 ml of solvent)
- Rating of Solubility ([1]; Acetonitrile, at the boiling point of solvent): A (Soluble in less than 0.1 ml of solvent)
- Rating of Solubility ([1]; Benzene, at the boiling point of solvent): B (Soluble in 0.1-1.0 ml of solvent)
- Rating of Solubility ([1]; Carbon tetrachloride, at the boiling point of solvent): C (Soluble in 1.0-10.0 ml of solvent)
- Rating of Solubility ([1]; Chloroform, at 25° C.): C (Soluble in 1.0-10.0 ml of solvent)
- Rating of Solubility ([1]; Chloroform, at the boiling point of solvent): C (Soluble in 1.0-10.0 ml of solvent)
- Rating of Solubility ([1]; Dichloromethane, at the boiling point of solvent): C (Soluble in 1.0-10.0 ml of solvent)
- Rating of Solubility ([1]; Diethylether, at 25° C.): A (Soluble in less than 0.1 ml of solvent)
- Rating of Solubility ([1]; Diethylether, at the boiling point of solvent): A (Soluble in less than 0.1 ml of solvent)
- Rating of Solubility ([1]; Ethyl acetate, at 25° C.): A (Soluble in less than 0.1 ml of solvent)
- Rating of Solubility ([1]; Ethyl acetate, at the boiling point of solvent): A (Soluble in less than 0.1 ml of solvent)
- Rating of Solubility ([1]; Ethyl alcohol, at 25° C.): A (Soluble in less than 0.1 ml of solvent)
- Rating of Solubility ([1]; Ethyl alcohol, at the boiling point of solvent): A (Soluble in less than 0.1 ml of solvent)
- Rating of Solubility ([1]; Methyl alcohol, at 25° C.): A (Soluble in less than 0.1 ml of solvent)
- Rating of Solubility ([1]; Methyl alcohol, at the boiling point of solvent): A (Soluble in less than 0.1 ml of solvent)
- Rating of Solubility ([1]; Pyridine, at 25° C.): A (Soluble in less than 0.1 ml of solvent)
- Rating of Solubility ([1]; Pyridine, at the boiling point of solvent): A (Soluble in less than 0.1 ml of solvent)
- Rating of Solubility ([1]; Toluene, at the boiling point of solvent): B (Soluble in 0.1-1.0 ml of solvent)
- solubility in ethyl acetate and ethyl alcohol ([1]; ethyl acetate and ethyl alcohol, in words): readily soluble
- Rating of Solubility ([1]; iso-Propyl alcohol, at 25° C.): A (Soluble in less than 0.1 ml of solvent)
- Rating of Solubility ([1]; iso-Propyl alcohol, at the boiling point of solvent): A (Soluble in less than 0.1 ml of solvent)
- solubility in ligroin and chloroform ([1]; ligroin and chloroform, in words): insoluble or hardly soluble
- Rating of Solubility ([1]; n-Butyl alcohol, at 25° C.): A (Soluble in less than 0.1 ml of solvent)
- Rating of Solubility ([1]; n-Butyl alcohol, at the boiling point of solvent): A (Soluble in less than 0.1 ml of solvent)
- Rating of Solubility ([1]; n-Propyl alcohol, at 25° C.): A (Soluble in less than 0.1 ml of solvent)
- Rating of Solubility ([1]; n-Propyl alcohol, at the boiling point of solvent): A (Soluble in less than 0.1 ml of solvent)
- solubility in 1,2-dichloroethane, toluene or benzene ([1]; room temperature, in words): insoluble or hardly soluble
- Peroxide value ([2]; 0.001 (% by weight) in lard, 8 hours): 2.4 meq./kg
- Peroxide value ([2]; 0.001 (% by weight) in lard, 16 hours): 5.3 meq./kg
- Peroxide value ([2]; 0.001 (% by weight) in lard, 24 hours): 8.2 meq./kg
- Peroxide value ([2]; 0.001 (% by weight) in lard, 32 hours): 14.9 meq./kg
- Peroxide value ([2]; 0.001 (% by weight) in lard, 40 hours): 419.9 meq./kg
- Peroxide value ([2]; 0.005% by weight in lard, 8 hours): 1.8 meq./kg
- Peroxide value ([2]; 0.005% by weight in lard, 16 hours): 5.0 meq./kg
- Peroxide value ([2]; 0.005% by weight in lard, 24 hours): 5.9 meq./kg
- Peroxide value ([2]; 0.005% by weight in lard, 32 hours): 6.3 meq./kg
- Peroxide value ([2]; 0.005% by weight in lard, 48 hours): 12.0 meq./kg
- Peroxide value ([2]; 0.005% by weight in lard, 56 hours): 18.2 meq./kg
- Peroxide value ([2]; 0.005% by weight in lard, 64 hours): 560.9 meq./kg
- prevention of oxidative denaturation of lard, compared with 0.02% by weight of BHA ([2]; 0.005% by weight of the compound in lard): to the same extent as done by adding 0.02% by weight of BHA
- Peroxide value ([2]; 0.01% by weight in lard, 8 hours): 1.5 meq./kg
- Peroxide value ([2]; 0.01% by weight in lard, 16 hours): 3.2 meq./kg
- Peroxide value ([2]; 0.01% by weight in lard, 24 hours): 4.8 meq./kg
- Peroxide value ([2]; 0.01% by weight in lard, 32 hours): 5.4 meq./kg
- Peroxide value ([2]; 0.01% by weight in lard, 40 hours): 7.7 meq./kg
- Peroxide value ([2]; 0.01% by weight in lard, 48 hours): 9.3 meq./kg
- Peroxide value ([2]; 0.01% by weight in lard, 56 hours): 11.3 meq./kg
- Peroxide value ([2]; 0.01% by weight in lard, 64 hours): 15.4 meq./kg
- Peroxide value ([2]; 0.01% by weight in lard, 72 hours): 22.1 meq./kg
- Peroxide value ([2]; 0.01% by weight in lard, 80 hours): 170.9 meq./kg
- anti-oxidative effect compared with the same amount of BHA ([2]; 0.02% by weight): approximately twice as high as the same amount of BHA
- Peroxide value ([2]; 0.02% by weight in lard, 8 hours): 1.8 meq./kg
- Peroxide value ([2]; 0.02% by weight in lard, 16 hours): 2.9 meq./kg
- Peroxide value ([2]; 0.02% by weight in lard, 24 hours): 3.8 meq./kg
- Peroxide value ([2]; 0.02% by weight in lard, 32 hours): 4.5 meq./kg
- Peroxide value ([2]; 0.02% by weight in lard, 40 hours): 6.0 meq./kg
- Peroxide value ([2]; 0.02% by weight in lard, 48 hours): 7.2 meq./kg
- Peroxide value ([2]; 0.02% by weight in lard, 56 hours): 8.2 meq./kg
- Peroxide value ([2]; 0.02% by weight in lard, 64 hours): 10.6 meq./kg
- Peroxide value ([2]; 0.02% by weight in lard, 72 hours): 13.2 meq./kg
- Peroxide value ([2]; 0.02% by weight in lard, 80 hours): 14.5 meq./kg
- Peroxide value ([2]; 0.02% by weight in lard, 96 hours): 21.5 meq./kg
- Peroxide value ([2]; 0.02% by weight in lard, 112 hours): 59.3 meq./kg
- Peroxide value ([2]; 0.02% by weight in lard, 120 hours): 390.7 meq./kg
- Peroxide value ([2]; 0.1% by weight in lard, 8 hours): 2.1 meq./kg
- Peroxide value ([2]; 0.1% by weight in lard, 16 hours): 3.0 meq./kg
- Peroxide value ([2]; 0.1% by weight in lard, 24 hours): 4.1 meq./kg
- Peroxide value ([2]; 0.1% by weight in lard, 32 hours): 5.2 meq./kg
- Peroxide value ([2]; 0.1% by weight in lard, 40 hours): 7.9 meq./kg
- Peroxide value ([2]; 0.1% by weight in lard, 48 hours): 8.7 meq./kg
- Peroxide value ([2]; 0.1% by weight in lard, 56 hours): 9.9 meq./kg
- Peroxide value ([2]; 0.1% by weight in lard, 64 hours): 11.8 meq./kg
- Peroxide value ([2]; 0.1% by weight in lard, 72 hours): 13.5 meq./kg
- Peroxide value ([2]; 0.1% by weight in lard, 80 hours): 16.0 meq./kg
- Peroxide value ([2]; 0.1% by weight in lard, 96 hours): 18.5 meq./kg
- Peroxide value ([2]; 0.1% by weight in lard, 112 hours): 24.0 meq./kg
- Peroxide value ([2]; 0.1% by weight in lard, 120 hours): 24.1 meq./kg
- Peroxide value ([2]; 0.1% by weight in lard, 144 hours): 29.9 meq./kg
- Peroxide value ([2]; 0.1% by weight in lard, 168 hours): 32.1 meq./kg
- Peroxide value ([2]; 0.1% by weight in lard, 192 hours): 38.1 meq./kg
- Peroxide value ([2]; 0.1% by weight in lard, 200 hours): 45.0 meq./kg
- Peroxide value ([2]; 0.1% by weight in lard, 264 hours): 678.2 meq./kg
- irritation [3]: non-irritative
- anti-oxidative activities (summary of peroxide value and oxygen absorption tests) ([4]; AOM peroxide value and oxygen absorption): excellent anti-oxidative activities
- anti-oxidative activities compared with the conventional anti-oxidant BHA ([4]; in foodstuffs, such as lard or the like): much higher anti-oxidative activities than the conventional anti-oxidant BHA
- Oxygen absorption ([5]; 85 hours): 84.4 μ1/g
- Oxygen absorption ([5]; 140 hours): 138.7 μ1/g
- Oxygen absorption ([5]; 166 hours): 159.8 μ1/g
- Oxygen absorption ([5]; 199 hours): 174.8 μ1/g
- Oxygen absorption ([5]; 263 hours): 238.0 μ1/g
- Oxygen absorption ([5]; 288 hours): 280.4 μ1/g
- Oxygen absorption ([5]; 320 hours): 334.6 μ1/g
- Oxygen absorption ([5]; 343 hours): 375.3 μ1/g
- LD50 value compared with BHT (mouse): about the same as in BHT
- LD50 [6]: > 2000 mg/kg
